According to PubChem BioAssay (NCI):
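Compound exposure: 48 hours, 5 concentrations, 96-well plates. TGI marks complete inhibition of growth.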

What was measured:
Assay in all cases: NCI anticancer screen, dose series, 48 h
HOP-92 NSCLC = tested on: HOP-92 NSCLC
ACHN renal = tested on: ACHN renal
NCI-H522 lung = tested on: NCI-H522 lung
KM12 colon = tested on: KM12 colon
A549 NSCLC = tested on: A549 NSCLC
OVCAR-5 ovarian = tested on: OVCAR-5 ovarian
HCT-15 colon = tested on: HCT-15 colon
UACC-257 melanoma = tested on: UACC-257 melanoma
CAKI-1 renal = tested on: CAKI-1 renal
TK-10 renal = tested on: TK-10 renal
SK-MEL-2 melanoma = tested on: SK-MEL-2 melanoma
PC-3 prostate = tested on: PC-3 prostate
HOP-62 NSCLC = tested on: HOP-62 NSCLC
MDA-MB-231 breast = tested on: MDA-MB-231 breast
COLO 205 colon = tested on: COLO 205 colon
M14 melanoma = tested on: M14 melanoma
MDA-MB-435 = tested on: MDA-MB-435
K-562 leukemia = tested on: K-562 leukemia
HT29 colon = tested on: HT29 colon
SNB-19 CNS = tested on: SNB-19 CNS
IGROV1 ovarian = tested on: IGROV1 ovarian
HCC-2998 colon = tested on: HCC-2998 colon
OVCAR-8 ovarian = tested on: OVCAR-8 ovarian
SR leukemia = tested on: SR leukemia
SNB-75 CNS = tested on: SNB-75 CNS
HL-60(TB) leukemia = tested on: HL-60(TB) leukemia
SF-268 CNS = tested on: SF-268 CNS
SW-620 colon = tested on: SW-620 colon
CCRF-CEM leukemia = tested on: CCRF-CEM leukemia
MCF7 breast = tested on: MCF7 breast
NCI/ADR-RES ovarian = tested on: NCI/ADR-RES ovarian
MOLT-4 leukemia = tested on: MOLT-4 leukemia
SN12C renal = tested on: SN12C renal
SK-MEL-5 melanoma = tested on: SK-MEL-5 melanoma
OVCAR-4 ovarian = tested on: OVCAR-4 ovarian
HCT-116 colon = tested on: HCT-116 colon
786-0 renal = tested on: 786-0 renal
SF-295 CNS = tested on: SF-295 CNS
U251 CNS = tested on: U251 CNS
LOX IMVI melanoma = tested on: LOX IMVI melanoma
NCI-H460 lung = tested on: NCI-H460 lung
BT-549 breast = tested on: BT-549 breast
NCI-H23 lung = tested on: NCI-H23 lung
SF-539 CNS = tested on: SF-539 CNS
SK-MEL-28 melanoma = tested on: SK-MEL-28 melanoma
DU-145 prostate = tested on: DU-145 prostate
RPMI-8226 leukemia = tested on: RPMI-8226 leukemia
EKVX NSCLC = tested on: EKVX NSCLC
MALME-3M melanoma = tested on: MALME-3M melanoma
RXF 393 renal = tested on: RXF 393 renal
UO-31 renal = tested on: UO-31 renal
HS 578T breast = tested on: HS 578T breast
SK-OV-3 ovarian = tested on: SK-OV-3 ovarian

Measured: TGI

C=CN(C=C)C(=O)Cn1cc(-c2ccccc2)nn1
not listed: RXF 393 renal | UO-31 renal | HS 578T breast | SK-OV-3 ovarian
> 100 µM: all other assays above

Cc1cn(S(=O)(=O)c2ccccc2)c2c(OCc3ccccc3)cc(NC(=O)c3cc4cc([N+](=O)[O-])ccc4s3)cc12
not listed: HOP-92 NSCLC | KM12 colon | UACC-257 melanoma | SK-MEL-2 melanoma | PC-3 prostate | MDA-MB-435 | K-562 leukemia | HT29 colon | SNB-19 CNS | SR leukemia | SF-268 CNS | MCF7 breast | SN12C renal | HCT-116 colon | 786-0 renal | U251 CNS | SF-539 CNS
> 100 µM: all other assays above
